Data reported in patent publication US8609622B2, “C-aryl glucoside derivatives, preparation process and pharmaceutical use thereof” (Shanghai Hengrui Pharmaceutical Co., Ltd., priority 2010, dated 2013).

Tests used:
glucose-load mice = assay: Preliminary evaluation of the hypoglycemic effect in glucose-load mice; format: in vivo; details: ICR mice, dose 1 mg/kg, 20% glucose solution 4 g/kg given 15 minutes after administering, blood glucose at minute 0, 15, 30, 45, 60, 120
Experimental: The purpose was to observe the effect of the test compounds on blood glucose levels of glucose-load mice. Determination and analysis of sugar content in the blood collected from the mouse tail was determined at different times within 2 hours of administration to provide preliminary evaluation of the hypoglycemic activity in vivo.
The experimental animals used were 24 healthy ICR mice (weighing 20-24 g), 12 female and 12 male, purchased from Shanghai Super—B&K laboratory animal Corp. Ltd., animal production license number: SCXK (Shanghai) 2008-0016.
To prepare the drug, a certain amount of compounds were weighed and dissolved in water (pure water OWN) and formulated into an aqueous solution of 0.1 mg/mL (5% DMSO for solubilization).
The administered dose was 1 mg/kg, blank and water groups (containing 5% DMSO).
20% glucose solution (4 g/kg, 0.8 mL each mouse) was given after 15 minutes of administration.
Administering in dose and measuring the blood glucose value (−15 minutes).

SGLT1 = SGLT1 (Homo sapiens (Human), UniProt P13866); assay: SGLT1 activity measurement: [14C] methyl α-D-glucopyranoside uptake in SGLT1 instantaneous transfer strain; format: cell-based; details: SGLT1 transfected cells, 96-well plate, 15 min preincubation, 2 hours with [14C] methyl α-D-glucopyranoside at 37° C.
Chain of SGLT1 (P13866 whole entry, species assumed): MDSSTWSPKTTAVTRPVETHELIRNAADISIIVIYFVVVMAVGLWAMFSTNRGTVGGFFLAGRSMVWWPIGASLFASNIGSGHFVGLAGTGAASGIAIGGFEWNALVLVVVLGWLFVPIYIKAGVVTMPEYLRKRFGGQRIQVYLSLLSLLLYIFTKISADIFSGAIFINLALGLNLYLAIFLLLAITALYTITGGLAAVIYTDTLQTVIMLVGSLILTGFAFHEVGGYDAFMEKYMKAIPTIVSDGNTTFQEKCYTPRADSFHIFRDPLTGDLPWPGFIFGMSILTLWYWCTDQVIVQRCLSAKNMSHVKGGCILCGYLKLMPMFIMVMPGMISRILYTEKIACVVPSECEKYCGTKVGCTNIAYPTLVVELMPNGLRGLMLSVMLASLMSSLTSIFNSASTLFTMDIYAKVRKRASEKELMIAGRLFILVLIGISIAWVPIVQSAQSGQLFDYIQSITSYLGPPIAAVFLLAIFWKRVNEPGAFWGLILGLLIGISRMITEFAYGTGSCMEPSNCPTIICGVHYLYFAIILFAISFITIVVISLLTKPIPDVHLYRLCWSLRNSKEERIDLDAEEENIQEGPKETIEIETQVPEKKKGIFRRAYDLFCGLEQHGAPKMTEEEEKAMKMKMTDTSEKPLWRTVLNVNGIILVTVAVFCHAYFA

SGLT2 = SGLT2 (Homo sapiens (Human), UniProt P31639); assay: SGLT2 activity measurement: [14C] methyl α-D-glucopyranoside uptake in SGLT2 instantaneous transfer strain; format: cell-based; details: SGLT2 transfected cells, 96-well plate, 15 min preincubation, 2 hours with [14C] methyl α-D-glucopyranoside at 37° C.
Chain of SGLT2 (P31639 whole entry, species assumed): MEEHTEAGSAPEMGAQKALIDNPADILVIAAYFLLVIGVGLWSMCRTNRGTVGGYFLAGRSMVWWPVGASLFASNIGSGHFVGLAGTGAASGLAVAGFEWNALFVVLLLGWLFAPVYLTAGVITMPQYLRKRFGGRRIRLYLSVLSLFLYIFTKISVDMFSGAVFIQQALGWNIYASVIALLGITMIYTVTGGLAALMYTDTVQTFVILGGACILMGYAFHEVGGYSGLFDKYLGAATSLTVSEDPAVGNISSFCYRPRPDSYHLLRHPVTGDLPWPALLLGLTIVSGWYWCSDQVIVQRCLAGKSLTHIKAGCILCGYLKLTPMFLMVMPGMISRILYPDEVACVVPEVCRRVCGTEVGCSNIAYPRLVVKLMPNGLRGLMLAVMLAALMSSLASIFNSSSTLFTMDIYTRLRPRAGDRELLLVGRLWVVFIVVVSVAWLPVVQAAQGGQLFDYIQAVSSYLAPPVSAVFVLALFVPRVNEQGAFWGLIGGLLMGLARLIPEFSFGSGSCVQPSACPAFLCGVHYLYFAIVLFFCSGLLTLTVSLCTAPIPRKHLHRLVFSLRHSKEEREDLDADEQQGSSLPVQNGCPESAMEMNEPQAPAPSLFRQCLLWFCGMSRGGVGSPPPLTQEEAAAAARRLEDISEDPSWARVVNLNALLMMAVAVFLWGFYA

Structure (SMILES) | IC50 (SGLT1) [nM] | IC50 (SGLT2) [nM] | AUC decline rate % (glucose-load mice) [%]
CCOc1ccc(Cc2cc(C34OCC(CO)(O3)[C@@H](O)[C@H](O)[C@H]4O)ccc2Cl)cc1F (stereo in doubt) [Example 4, (1S,2S,3S,4R,5S)-5-[4-chloro-3-[(4-ethoxy-3-fluoro-phenyl)methyl]phenyl]-1-(hydroxymethyl)-6,8-dioxabicyclo[3.2.1]octane-2,3,4-triol] |  |  | 15.88
Cc1ccc(C23OCC(CO)(O2)C(O)C(O)C3O)cc1Cc1ccc(-c2ccc(F)cc2)s1 (single isomer, unassigned) [Example 9] | 1260 | 9.28 | 
OCC12COC(c3ccc(Cl)c(Cc4ccc(OC(F)(F)F)cc4)c3)(O1)[C@H](O)[C@@H](O)[C@@H]2O (stereo in doubt) [Example 6, (1S,2S,3S,4R,5S)-5-[4-chloro-3-[[4-(trifluoromethoxy)phenyl]methyl]phenyl]-1-(hydroxymethyl)-6,8-dioxabicyclo[3.2.1]octane-2,3,4-triol] |  |  | 10.15
[2H]C([2H])([2H])C([2H])([2H])Oc1ccc(Cc2cc(C34OCC(CO)(O3)[C@@H](O)[C@H](O)[C@H]4O)ccc2Cl)cc1F (stereo in doubt) [Example 10, (1S,2S,3S,4R,5S)-5-[4-chloro-3-[[3-fluoro-4-(1,1,2,2,2-pentadeuterioethoxy)phenyl]methyl]phenyl]-1-(hydroxymethyl)-6,8-dioxabicyclo[3.2.1]octane-2,3,4-triol] | 1220 | 3.31 | 
OCC12COC(c3ccc(Cl)c(Cc4ccc(OCC(F)(F)F)cc4)c3)(O1)C(O)C(O)C2O (single isomer, unassigned) [Example 7] | 14300 | 4.58 | 
[2H]C([2H])(c1ccc(OCC)c(F)c1)c1cc(C23OCC(CO)(O2)[C@@H](O)[C@H](O)[C@H]3O)ccc1Cl (stereo in doubt) [Example 11, (1S,2S,3S,4R,5S)-5-[4-chloro-3-[dideuterio-(4-ethoxy-3-fluoro-phenyl)methyl]phenyl]-1-(hydroxymethyl)-6,8-dioxabicyclo[3.2.1]octane-2,3,4-triol] | 3550 | 6.35 | 
OCC12COC(c3ccc(Cl)c(Cc4ccc(OCC(F)(F)F)cc4)c3)(O1)[C@H](O)[C@@H](O)[C@@H]2O (stereo in doubt) [Example 7, (1S,2S,3S,4R,5S)-5-[4-chloro-3-[[4-(2,2,2-trifluoroethoxy)phenyl]methyl]phenyl]-1-(hydroxymethyl)-6,8-dioxabicyclo[3.2.1]octane-2,3,4-triol] |  |  | 10.75
OCC12COC(c3ccc(Cl)c(Cc4ccc(OCCOC5CC5)cc4)c3)(O1)[C@H](O)[C@@H](O)[C@@H]2O (stereo in doubt) [Example 1, (1S,2S,3S,4R,5S)-5-[4-chloro-3-[[4-[2-(cyclopropoxy)ethoxy]phenyl]methyl]phenyl]-1-(hydroxymethyl)-6,8-dioxabicyclo[3.2.1]octane-2,3,4-triol] | > 2000 | 9.53 | 10.04
OCC12COC(c3ccc(Cl)c(Cc4ccc5c(c4)CCO5)c3)(O1)[C@H](O)[C@@H](O)[C@@H]2O (stereo in doubt) [Example 5, (1S,2S,3S,4R,5S)-5-[4-chloro-3-(2,3-dihydrobenzofuran-5-ylmethyl)phenyl]-1-(hydroxymethyl)-6,8-dioxabicyclo[3.2.1]octane-2,3,4-triol] |  |  | 14.13

Continued, in another order:

IC50 (SGLT1) [nM] | IC50 (SGLT2) [nM] | Structure (SMILES) | AUC decline rate % (glucose-load mice) [%]
2520 |  | OCC12COC(c3ccc(Cl)c(Cc4ccc5c(c4)CCO5)c3)(O1)C(O)C(O)C2O (single isomer, unassigned) [Example 5] | 
 | 8.08 | CCOc1ccc(Cc2cc(C34OCC(CO)(O3)C(O)C(O)C4O)ccc2Cl)c(F)c1F (single isomer, unassigned) [Example 3] | 
> 2000 | 3.65 | COc1ccc(Cc2cc(C34OCC(CO)(O3)[C@@H](O)[C@H](O)[C@H]4O)ccc2Cl)c(F)c1F (stereo in doubt) [Example 2, (1S,2S,3S,4R,5S)-5-[4-chloro-3-[(2,3-difluoro-4-methoxy-phenyl)methyl]phenyl]-1-(hydroxymethyl)-6,8-dioxabicyclo[3.2.1]octane-2,3,4-triol] | 12.95
 | 6.92 | CCOc1ccc(Cc2cc(C34OCC(CO)(O3)C(O)C(O)C4O)ccc2Cl)cc1F (single isomer, unassigned) [Example 4] | 
600 | 1.42 | [2H]C([2H])([2H])Oc1ccc(Cc2cc(C34OCC(CO)(O3)[C@@H](O)[C@H](O)[C@H]4O)ccc2Cl)cc1F (stereo in doubt) [Example 8, (1S,2S,3S,4R,5S)-5-[4-chloro-3-[[3-fluoro-4-(trideuteriomethoxy)phenyl]methyl]phenyl]-1-(hydroxymethyl)-6,8-dioxabicyclo[3.2.1]octane-2,3,4-triol] | 20.49
